Results as given in ChEMBL document CHEMBL5537115, “New broad-spectrum and potent antibacterial agents with dual-targeting mechanism: Promoting FtsZ polymerization and disrupting bacterial membranes” (Eur J Med Chem, 2024).
Calls of active or inactive are those of the source. The calls are words filed in the database; no cut-off is given here.

Key:
Escherichia coli [1] = experiment: Disruption of inner membrane in Escherichia coli ATCC25922 measured after 12 mins by PI staining based analysis; assay type: functional, organism-based
Staphylococcus aureus [2] = experiment: Antibacterial activity against methicillin-resistant Staphylococcus aureus ATCC43300 assessed as bacterial growth inhibition incubated for 20 hrs by CLSI based broth microdilution method; assay type: functional
Staphylococcus aureus [3] = experiment: Antibacterial activity against erythromycin-susceptible Staphylococcus aureus ATCC25923 incubated for 18 to 24 hrs; assay type: functional; conditions: time 18-24 hrs
Acinetobacter baumannii [4] = experiment: Selectivity ratio of MBC for Acinetobacter baumannii ATCC19606 to MIC for Acinetobacter baumannii ATCC19606; assay type: functional
Escherichia coli [5] = experiment: Induction of membrane potential depolarization in Escherichia coli ATCC25922 measured after 20 mins by diSC35 dye based spectroscopy; assay type: functional, organism-based
Staphylococcus aureus [6] = experiment: Antibacterial activity against erythromycin-susceptible Staphylococcus aureus ATCC25923 assessed as bacterial growth inhibition incubated for 20 hrs by CLSI based broth microdilution method; assay type: functional
Staphylococcus aureus [7] = experiment: Induction of morphological change in Staphylococcus aureus ATCC25923 assessed as loss of bacterial membrane integrity at 16 times MIC incubated for 2 hrs by TEM analysis; assay type: functional, organism-based
Acinetobacter baumannii [8] = experiment: Antibacterial activity against Acinetobacter baumannii ATCC19606 incubated for 18 to 24 hrs; assay type: functional; conditions: time 18-24 hrs
Enterococcus faecalis [9] = experiment: Antibacterial activity against vancomycin-resistant Enterococcus faecalis ATCC51299 assessed as bacterial growth inhibition incubated for 20 hrs by CLSI based broth microdilution method; assay type: functional
Enterococcus faecium [10] = experiment: Antibacterial activity against vancomycin-susceptible Enterococcus faecium ATCC19434 assessed as bacterial growth inhibition incubated for 20 hrs by CLSI based broth microdilution method; assay type: functional
[11] = target: T1, Cell division protein FtsZ (Bacillus subtilis) (UniProt A5Z1V5); experiment: Induction of FtsZ polymerization in Bacillus subtilis assessed as bundling of FtsZ protofilaments at 10 ug/ml preincubated for 15 mins followed by GTP addition measured after 10 mins by TEM analysis; conditions: dose 10.0 µg/ml, time 25.0 min
T1 sequence (whole entry): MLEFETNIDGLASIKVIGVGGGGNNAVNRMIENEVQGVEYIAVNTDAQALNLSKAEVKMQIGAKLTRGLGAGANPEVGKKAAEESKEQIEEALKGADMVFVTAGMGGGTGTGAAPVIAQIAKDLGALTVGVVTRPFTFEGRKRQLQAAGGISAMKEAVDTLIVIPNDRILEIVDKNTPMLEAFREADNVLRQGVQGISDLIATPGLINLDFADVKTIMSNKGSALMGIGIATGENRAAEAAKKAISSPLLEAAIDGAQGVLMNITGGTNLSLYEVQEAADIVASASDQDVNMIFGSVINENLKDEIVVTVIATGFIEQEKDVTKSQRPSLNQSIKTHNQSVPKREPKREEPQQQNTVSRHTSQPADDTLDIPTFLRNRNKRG

Staphylococcus aureus [12] = experiment: Antibacterial activity against Staphylococcus aureus clinical isolate assessed as bacterial growth inhibition incubated for 20 hrs by CLSI based broth microdilution method; assay type: functional
Escherichia coli [13] = experiment: Disruption of outer membrane in Escherichia coli ATCC25922 measured after 10 mins by NPN dye based analysis; assay type: functional, organism-based; conditions: dose 4-16 µg/ml
[14] = target: T1, Cell division protein FtsZ (Bacillus subtilis); experiment: Induction of FtsZ polymerization in Bacillus subtilis at 2.5 to 10 ug/ml preincubated with compound followed by GTP addition by absorbance based assay; conditions: dose 2.5-10 µg/ml, time 40.0 min, TDE = time-dependent effect
Staphylococcus aureus [15] = experiment: Induction of membrane potential depolarization in Staphylococcus aureus ATCC25923 measured after 20 mins by diSC35 dye based spectroscopy; assay type: functional, organism-based
Bacillus subtilis [16] = experiment: Antibacterial activity against penicillin-susceptible Bacillus subtilis ATCC9372 assessed as bacterial growth inhibition incubated for 20 hrs by CLSI based broth microdilution method; assay type: functional
[17] = target: T1, Cell division protein FtsZ (Bacillus subtilis); experiment: Induction of FtsZ polymerization in Bacillus subtilis preincubated for 10 mins followed by GTP addition measured upto 30 mins by absorbance based assay; conditions: dose 2.5-10 µg/ml, time 40.0 min
Staphylococcus aureus [18] = experiment: Induction of resistance development in Staphylococcus aureus ATCC25923 assessed as fold increase in MIC at 0.5 times MIC measured after 32 days by multi-passage resistance assay relative to control; assay type: functional; conditions: time 32.0 day
Staphylococcus aureus [19] = experiment: Selectivity ratio of MBC for methicillin-resistant Staphylococcus aureus ATCC43300 to MIC for methicillin-resistant Staphylococcus aureus ATCC43300; assay type: functional
Staphylococcus aureus [20] = experiment: Selectivity ratio of MBC for Staphylococcus aureus clinical isolate to MIC for Staphylococcus aureus clinical isolate; assay type: functional
Staphylococcus aureus [21] = experiment: Inhibition of biofilm formation of Staphylococcus aureus ATCC25923 incubated for 20 hrs by crystal violet staining based analysis; assay type: functional, organism-based
Bacillus subtilis [22] = experiment: Selectivity ratio of MBC for penicillin-susceptible Bacillus subtilis ATCC9372 to MIC for penicillin-susceptible Bacillus subtilis ATCC9372; assay type: functional
Bacillus subtilis [23] = experiment: Induction of morphological change in Bacillus subtilis ATCC9372 assessed as increase in cell length at 0.5 times MIC by phase contrast microscopy; assay type: functional, organism-based
Staphylococcus aureus [24] = experiment: Antibacterial activity against Staphylococcus aureus clinical isolate incubated for 18 to 24 hrs; assay type: functional; conditions: time 18-24 hrs
Acinetobacter baumannii [25] = experiment: Antibacterial activity against Acinetobacter baumannii ATCC19606 assessed as bacterial growth inhibition incubated for 20 hrs by CLSI based broth microdilution method; assay type: functional
Escherichia coli [26] = experiment: Antibacterial activity against wild-type Escherichia coli BW25113 assessed as bacterial growth inhibition incubated for 20 hrs by CLSI based broth microdilution method; assay type: functional
Klebsiella pneumoniae = experiment: Antibacterial activity against Klebsiella pneumoniae ATCC BAA-1902 assessed as bacterial growth inhibition incubated for 20 hrs by CLSI based broth microdilution method; assay type: functional
[27] = system: Staphylococcus epidermidis; experiment: Antibacterial activity against penicillin-resistant Staphylococcus epidermidis clinical isolate assessed as bacterial growth inhibition incubated for 20 hrs by CLSI based broth microdilution method; assay type: functional
Staphylococcus aureus [28] = experiment: Disruption of inner membrane in Staphylococcus aureus ATCC25923 measured after 12 mins by PI staining based analysis; assay type: functional, organism-based
[29] = Hemolytic activity in mouse erythrocytes at 16 ug/ml incubated for 1 hr by absorbance based assay; assay type: toxicity, cell-based, Erythrocyte; conditions: at 16 µg/mL, read-out: Activity
Staphylococcus aureus [30] = experiment: Antibacterial activity against penicillin-resistant Staphylococcus aureus ATCC31007 assessed as bacterial growth inhibition incubated for 20 hrs by CLSI based broth microdilution method; assay type: functional
Staphylococcus aureus [31] = experiment: Antibacterial activity against Staphylococcus aureus ATCC25923 infected in Kunming mouse model assessed as bacterial growth reduction at 25 mg/kg, ip; assay type: functional, organism-based
Bacillus subtilis [32] = experiment: Antibacterial activity against penicillin-susceptible Bacillus subtilis ATCC9372 incubated for 18 to 24 hrs; assay type: functional; conditions: time 18-24 hrs
Staphylococcus aureus [33] = experiment: Induction of morphological change in Staphylococcus aureus ATCC25923 assessed as leakage of cell contents at 16 times MIC incubated for 2 hrs by TEM analysis; assay type: functional, organism-based
Streptococcus pyogenes [34] = experiment: Antibacterial activity against erythromycin-resistant Streptococcus pyogenes 2 clinical isolate assessed as bacterial growth inhibition incubated for 20 hrs by CLSI based broth microdilution method; assay type: functional
Bacillus pumilus = experiment: Antibacterial activity against penicillin-susceptible Bacillus pumilus CMCC63202 assessed as bacterial growth inhibition incubated for 20 hrs by CLSI based broth microdilution method; assay type: functional
Enterococcus faecium [35] = experiment: Antibacterial activity against vancomycin-resistant Enterococcus faecium ATCC51559 assessed as bacterial growth inhibition incubated for 20 hrs by CLSI based broth microdilution method; assay type: functional
Staphylococcus aureus [36] = experiment: Disruption of inner membrane in Staphylococcus aureus ATCC25923 by PI staining based analysis; assay type: functional, organism-based; conditions: time 12.0 min, TDE = time-dependent effect
Escherichia coli [37] = experiment: Antibacterial activity against penicillin-susceptible Escherichia coli ATCC25922 assessed as bacterial growth inhibition incubated for 20 hrs by CLSI based broth microdilution method; assay type: functional
Staphylococcus aureus [38] = experiment: Selectivity ratio of MBC for erythromycin-susceptible Staphylococcus aureus ATCC25923 to MIC for erythromycin-susceptible Staphylococcus aureus ATCC25923; assay type: functional
Streptococcus pyogenes [39] = experiment: Antibacterial activity against erythromycin-susceptible Streptococcus pyogenes 1 assessed as bacterial growth inhibition incubated for 20 hrs by CLSI based broth microdilution method; assay type: functional
Staphylococcus aureus [40] = experiment: Inhibition of biofilm formation of Staphylococcus aureus ATCC25923 at 0.5 ug/ml incubated for 20 hrs by crystal violet staining based analysis relative to control; assay type: functional
[41] = Hemolytic activity in mouse erythrocytes at 8 ug/ml incubated for 1 hr by absorbance based assay; assay type: toxicity, cell-based, Erythrocyte; conditions: at 8 µg/mL, read-out: Activity
Enterococcus faecalis [42] = experiment: Antibacterial activity against vancomycin-susceptible Enterococcus faecalis ATCC29212 assessed as bacterial growth inhibition incubated for 20 hrs by CLSI based broth microdilution method; assay type: functional
Staphylococcus aureus [43] = experiment: Antibacterial activity against methicillin-resistant Staphylococcus aureus ATCC43300 incubated for 18 to 20 hrs; assay type: functional; conditions: time 18-20 hrs
Escherichia coli [44] = experiment: Disruption of inner membrane in Escherichia coli ATCC25922 by PI staining based analysis; assay type: functional, organism-based; conditions: time 12.0 min, TDE = time-dependent effect
[45] = Hemolytic activity in mouse erythrocytes at 32 ug/ml incubated for 1 hr by absorbance based assay; assay type: toxicity, cell-based, Erythrocyte; conditions: at 32 µg/mL, read-out: Activity

Cc1ccccc1-c1c[n+](C)c(-c2ccc(C(C)(C)C)cc2)cc1/C=C/c1ccc(C(C)(C)C)cc1.[I-]
Activity (Escherichia coli [1]): Dose-Dependent Effect
MIC (Staphylococcus aureus [2]): 0.25 µg/mL
MBC (Staphylococcus aureus [3]): 0.5 µg/mL
Ratio (Acinetobacter baumannii [4]): 4
Activity (Escherichia coli [5]): Dose-Dependent Effect
MIC (Staphylococcus aureus [6]): 0.125 µg/mL
Activity (Staphylococcus aureus [7]): Active
MBC (Acinetobacter baumannii [8]): 2 µg/mL
MIC (Enterococcus faecalis [9]): 0.25 µg/mL
MIC (Enterococcus faecium [10]): 0.125 µg/mL
Activity [11]: Active
MIC (Staphylococcus aureus [12]): 0.25 µg/mL
Activity (Escherichia coli [13]): Dose-Dependent Effect
Activity [14]: Tde
Activity (Staphylococcus aureus [15]): Dose-Dependent Effect
MIC (Bacillus subtilis [16]): 0.125 µg/mL
Activity [17]: Dose-Dependent Effect
fold change (FC) (Staphylococcus aureus [18]): 2
Ratio (Staphylococcus aureus [19]): 1
Ratio (Staphylococcus aureus [20]): 2
inhibition (Staphylococcus aureus [21]): Dose-Dependent Effect
Ratio (Bacillus subtilis [22]): 32
Activity (Bacillus subtilis [23]): Active
MBC (Staphylococcus aureus [24]): 0.5 µg/mL
MIC (Acinetobacter baumannii [25]): 0.5 µg/mL
MIC (Escherichia coli [26]): 2 µg/mL
MIC (Klebsiella pneumoniae): 4 µg/mL
MIC [27]: 0.5 µg/mL
Activity (Staphylococcus aureus [28]): Dose-Dependent Effect
hemolysis at 1 h, 16 ug/ml [29]: 18.9%
MIC (Staphylococcus aureus [30]): 1 µg/mL
Activity (Staphylococcus aureus [31]): Active
MBC (Bacillus subtilis [32]): 4 µg/mL
Activity (Staphylococcus aureus [33]): Active
MIC (Streptococcus pyogenes [34]): 2 µg/mL
MIC (Bacillus pumilus): 0.5 µg/mL
MIC (Enterococcus faecium [35]): 0.5 µg/mL
Activity (Staphylococcus aureus [36]): Tde
MIC (Escherichia coli [37]): 4 µg/mL
Ratio (Staphylococcus aureus [38]): 4
MIC (Streptococcus pyogenes [39]): 2 µg/mL
inhibition at 0.5 µg/mL (Staphylococcus aureus [40]): 28.8%
hemolysis at 1 h, 8 ug/ml [41]: 8.29%
MIC (Enterococcus faecalis [42]): 1 µg/mL
MBC (Staphylococcus aureus [43]): 0.25 µg/mL
Activity (Escherichia coli [44]): Tde

C[n+]1cc(-c2ccccc2)c(/C=C/c2ccc(N3CCCC3)cc2)cc1-c1ccc(C(C)(C)C)cc1.[I-]
MIC (Staphylococcus aureus [2]): 0.5 µg/mL
MBC (Staphylococcus aureus [3]): 1 µg/mL
Ratio (Acinetobacter baumannii [4]): 2
MIC (Staphylococcus aureus [6]): 0.062 µg/mL
Activity (Staphylococcus aureus [7]): Active
MBC (Acinetobacter baumannii [8]): 2 µg/mL
MIC (Enterococcus faecalis [9]): 2 µg/mL
MIC (Enterococcus faecium [10]): 2 µg/mL
Activity [11]: Active
MIC (Staphylococcus aureus [12]): 0.5 µg/mL
Activity [14]: Tde
Activity (Staphylococcus aureus [15]): Dose-Dependent Effect
MIC (Bacillus subtilis [16]): 0.5 µg/mL
Activity [17]: Dose-Dependent Effect
fold change (FC) (Staphylococcus aureus [18]): 2
Ratio (Staphylococcus aureus [19]): 2
Ratio (Staphylococcus aureus [20]): 1
inhibition (Staphylococcus aureus [21]): Dose-Dependent Effect
Ratio (Bacillus subtilis [22]): 1
Activity (Bacillus subtilis [23]): Active
MBC (Staphylococcus aureus [24]): 0.5 µg/mL
MIC (Acinetobacter baumannii [25]): 1 µg/mL
MIC (Escherichia coli [26]): 8 µg/mL
MIC (Klebsiella pneumoniae): 16 µg/mL
MIC [27]: 1 µg/mL
Activity (Staphylococcus aureus [28]): Dose-Dependent Effect
hemolysis at 1 h, 16 ug/ml [29]: 4.65%
MIC (Staphylococcus aureus [30]): 0.25 µg/mL
MBC (Bacillus subtilis [32]): 0.5 µg/mL
Activity (Staphylococcus aureus [33]): Active
MIC (Streptococcus pyogenes [34]): 1 µg/mL
MIC (Bacillus pumilus): 0.062 µg/mL
MIC (Enterococcus faecium [35]): 2 µg/mL
Activity (Staphylococcus aureus [36]): Tde
hemolysis at 1 h, 32 ug/ml [45]: 13.7%
MIC (Escherichia coli [37]): 8 µg/mL
Ratio (Staphylococcus aureus [38]): 8
MIC (Streptococcus pyogenes [39]): 0.5 µg/mL
inhibition at 0.5 µg/mL (Staphylococcus aureus [40]): 59.1%
MIC (Enterococcus faecalis [42]): 0.5 µg/mL
MBC (Staphylococcus aureus [43]): 1 µg/mL
